Laboratory results from ChEMBL document CHEMBL5678809, “Preclinical characterization of GLPG0634, a selective inhibitor of JAK1, for the treatment of inflammatory diseases” (J Immunol, 2013).
The source made the active and inactive calls. The rule behind the calls is not given here.

Key:
[1] = organism: Homo sapiens; experiment: Inhibition of PKB3 (unknown origin) at 1 uM relative to control
[2] = target: Tyrosine-protein kinase ABL2 (Homo sapiens) (UniProt P42684); experiment: Inhibition of Arg (unknown origin) at 1 uM relative to control
[3] = target: Dual specificity mitogen-activated protein kinase kinase 6 (Homo sapiens) (UniProt P52564); experiment: Inhibition of MKK6 (unknown origin) at 1 uM relative to control
[4] = system: Mus musculus; experiment: Antiarthritic activity against collagen-induced arthritis DBA/1J mouse model assessed as M-CSF1 level in serum at 50 mg/kg, po measured for 4 hrs by luminex analysis (reference value: 11.1 +/- 1.3 ng/ml); format: functional
[5] = target: Interleukin-1 receptor-associated kinase 1 (Homo sapiens) (UniProt P51617); experiment: Inhibition of IRAK1 (unknown origin) at 1 uM relative to control
[6] = organism: Homo sapiens; experiment: Inhibition of PKB (unknown origin) at 1 uM relative to control
[7] = system: Mus musculus; experiment: Antiarthritic activity against collagen-induced arthritis DBA/1J mouse model assessed as MCP-3 level in serum at 50 mg/kg, po measured for 4 hrs by luminex analysis (reference value: 224 +/- 15.3 ng/ml); format: functional
[8] = system: Mus musculus; experiment: Antiarthritic activity against collagen-induced arthritis DBA/1J mouse model assessed as reduction in IL-6 level in serum at 50 mg/kg, po measured for 4 hrs by luminex analysis; format: functional, organism-based
[9] = target: Tyrosine-protein kinase Fgr (Homo sapiens) (UniProt P09769); experiment: Inhibition of Fgr (unknown origin) at 1 uM relative to control
[10] = target: Mitogen-activated protein kinase kinase kinase kinase 2 (Homo sapiens, UniProt Q12851); experiment: Inhibition of GCK (unknown origin)
[11] = Half life in CD-1 mouse at 5 mg/kg, po measured upto 24 hrs by LC-MS analysis; format: ADME, organism-based; details: in vivo
[12] = target: Serine/threonine-protein kinase pim-2 (Homo sapiens) (UniProt Q9P1W9); experiment: Inhibition of Pim-2 (unknown origin) at 1 uM relative to control
[13] = Oral bioavailability in CD-1 mouse at 5 mg/kg measured upto 24 hrs by LC-MS analysis; format: ADME, organism-based; details: in vivo
[14] = target: Proto-oncogene tyrosine-protein kinase receptor Ret (Homo sapiens) (UniProt P07949); experiment: Inhibition of Ret (unknown origin) at 1 uM relative to control
[15] = target: NUAK family SNF1-like kinase 1 (Homo sapiens) (UniProt O60285); experiment: Inhibition of ARK5 (unknown origin) at 1 uM relative to control
[16] = target: Testis-specific serine/threonine-protein kinase 2 (Homo sapiens) (UniProt Q96PF2); experiment: Inhibition of TSSK2 (unknown origin) at 1 uM relative to control
[17] = organism: Homo sapiens; experiment: Inhibition of PDGFR (unknown origin) at 1 uM relative to control
[18] = AUC (0 to 24 hrs) in Sprague-Dawley rat at 1 mg/kg, iv measured upto 8 hrs by LC-MS analysis; format: ADME, organism-based; details: in vivo
[19] = system: Mus musculus; experiment: Antiarthritic activity against collagen-induced arthritis DBA/1J mouse model assessed as reduction in clinical score at 50 mg/kg, po administered twice daily for 14 days; format: functional, organism-based; details: time 14.0 day
[20] = Half life in Dark Agouti rat at 3 to 30 mg/kg, po; format: ADME, organism-based; details: in vivo, dose 3-30 mg/kg
[21] = system: Mus musculus; experiment: Antiarthritic activity against collagen-induced arthritis DBA/1J mouse model assessed as MIP-1beta level in serum at 50 mg/kg, po measured for 4 hrs by luminex analysis (reference value: 203.4= +/- 20.8 ng/ml); format: functional
[22] = target: Serine/threonine-protein kinase Sgk2 (Homo sapiens) (UniProt Q9HBY8); experiment: Inhibition of SGK2 (unknown origin) at 1 uM relative to control
[23] = system: Mus musculus; experiment: Antiarthritic activity against collagen-induced arthritis DBA/1J mouse model assessed as cartilage degradation by measuring lesion score in hind paw at 50 mg/kg, po administered twice daily for 14 days by histological analysis; format: functional, organism-based; details: time 14.0 day
[24] = target: Tyrosine-protein kinase SYK (Homo sapiens, UniProt P43405); experiment: Inhibition of SYK (unknown origin)
[25] = target: Eukaryotic elongation factor 2 kinase (Homo sapiens) (UniProt O00418); experiment: Inhibition of eEF2K (unknown origin) at 1 uM relative to control
[26] = target: Cyclin-dependent kinase 1/cyclin B1 (Homo sapiens) (UniProt P06493+P14635); experiment: Inhibition of CDK1/cyclinB (unknown origin) at 1 uM relative to control; format: protein-complex assay
[27] = target: Vascular endothelial growth factor receptor 1 (Homo sapiens, UniProt P17948); experiment: Inhibition of Flt1 (unknown origin)
[28] = target: RAF proto-oncogene serine/threonine-protein kinase (Homo sapiens) (UniProt P04049); experiment: Inhibition of c-RAF (unknown origin) at 1 uM relative to control
[29] = target: Tyrosine-protein kinase Lck (Homo sapiens, UniProt P06239); experiment: Inhibition of LCK (unknown origin)
[30] = target: Serine/threonine-protein kinase 24 (Homo sapiens) (UniProt Q9Y6E0); experiment: Inhibition of MST3 (unknown origin) at 1 uM relative to control
[31] = target: Insulin receptor-related protein (Homo sapiens) (UniProt P14616); experiment: Inhibition of IRR (unknown origin) at 1 uM relative to control
[32] = target: Calcium/calmodulin-dependent protein kinase type IV (Homo sapiens) (UniProt Q16566); experiment: Inhibition of CaMK4 (unknown origin) at 1 uM relative to control
[33] = target: Serine/threonine-protein kinase BRSK1 (Homo sapiens) (UniProt Q8TDC3); experiment: Inhibition of BrSK1 (unknown origin) at 1 uM relative to control
[34] = target: Serine/threonine-protein kinase ICK (Homo sapiens, UniProt Q9UPZ9); experiment: Inhibition of ICK (unknown origin)
[35] = target: Serine/threonine-protein kinase SIK1 (Homo sapiens) (UniProt P57059); experiment: Inhibition of SIK (unknown origin) at 1 uM relative to control
[36] = target: Protein-tyrosine kinase 2-beta (Homo sapiens) (UniProt Q14289); experiment: Inhibition of Pyk2 (unknown origin) at 1 uM relative to control
[37] = target: Mitogen-activated protein kinase kinase kinase 9 (Homo sapiens) (UniProt P80192); experiment: Inhibition of MLK1 (unknown origin) at 1 uM relative to control
[38] = AUC (0 to 24 hrs) in CD-1 mouse at 1 mg/kg, iv measured upto 8 hrs by LC-MS analysis; format: ADME, organism-based; details: in vivo
[39] = target: Vascular endothelial growth factor receptor 2 (Homo sapiens) (UniProt P35968); experiment: Inhibition of KDR (unknown origin) at 1 uM relative to control
[40] = system: Mus musculus; experiment: Antiarthritic activity against collagen-induced arthritis DBA/1J mouse model assessed as reduction in XCL1 level in serum at 50 mg/kg, po measured for 4 hrs by luminex analysis; format: functional, organism-based
[41] = target: Tyrosine-protein kinase receptor TYRO3 (Homo sapiens) (UniProt Q06418); experiment: Inhibition of Rse (unknown origin) at 1 uM relative to control

Chain of Testis-specific serine/threonine-protein kinase 2 (Homo sapiens) (Q96PF2 whole entry): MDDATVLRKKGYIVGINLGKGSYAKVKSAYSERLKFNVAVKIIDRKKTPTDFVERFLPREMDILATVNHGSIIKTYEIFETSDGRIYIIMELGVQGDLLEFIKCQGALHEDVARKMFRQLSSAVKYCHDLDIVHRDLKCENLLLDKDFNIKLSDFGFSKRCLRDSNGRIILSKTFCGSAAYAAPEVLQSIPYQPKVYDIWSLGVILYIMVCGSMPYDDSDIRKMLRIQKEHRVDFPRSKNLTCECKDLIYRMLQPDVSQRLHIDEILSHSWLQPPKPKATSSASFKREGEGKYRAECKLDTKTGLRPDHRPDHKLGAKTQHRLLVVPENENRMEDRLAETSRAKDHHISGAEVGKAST
Chain of Serine/threonine-protein kinase Sgk2 (Homo sapiens) (Q9HBY8 whole entry): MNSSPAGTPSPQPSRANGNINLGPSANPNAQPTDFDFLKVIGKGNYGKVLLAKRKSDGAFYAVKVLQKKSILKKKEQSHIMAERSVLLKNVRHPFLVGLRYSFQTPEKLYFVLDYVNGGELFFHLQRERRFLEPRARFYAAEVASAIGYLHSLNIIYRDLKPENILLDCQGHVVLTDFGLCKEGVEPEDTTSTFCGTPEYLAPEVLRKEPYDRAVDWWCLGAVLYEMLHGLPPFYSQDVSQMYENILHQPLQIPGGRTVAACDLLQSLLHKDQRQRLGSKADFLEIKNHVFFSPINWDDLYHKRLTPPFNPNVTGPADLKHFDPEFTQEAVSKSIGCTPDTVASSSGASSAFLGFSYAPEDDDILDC
Chain of RAF proto-oncogene serine/threonine-protein kinase (Homo sapiens) (P04049 whole entry): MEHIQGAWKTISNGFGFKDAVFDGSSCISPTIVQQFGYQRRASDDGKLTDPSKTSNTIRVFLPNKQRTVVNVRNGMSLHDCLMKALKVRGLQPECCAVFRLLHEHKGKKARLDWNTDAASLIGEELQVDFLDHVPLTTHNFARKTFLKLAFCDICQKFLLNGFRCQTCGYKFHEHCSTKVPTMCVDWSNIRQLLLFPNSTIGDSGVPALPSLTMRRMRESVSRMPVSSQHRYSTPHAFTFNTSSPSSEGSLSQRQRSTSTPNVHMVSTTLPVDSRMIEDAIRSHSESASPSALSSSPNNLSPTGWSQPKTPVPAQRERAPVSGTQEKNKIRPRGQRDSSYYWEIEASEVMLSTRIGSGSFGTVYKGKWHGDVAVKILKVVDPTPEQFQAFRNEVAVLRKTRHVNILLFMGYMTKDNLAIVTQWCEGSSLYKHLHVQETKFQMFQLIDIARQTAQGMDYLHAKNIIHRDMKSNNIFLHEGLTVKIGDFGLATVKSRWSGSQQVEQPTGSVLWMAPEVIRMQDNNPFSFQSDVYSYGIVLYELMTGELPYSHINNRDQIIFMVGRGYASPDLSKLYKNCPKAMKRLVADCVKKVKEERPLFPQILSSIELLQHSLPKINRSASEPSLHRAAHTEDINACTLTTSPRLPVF
Chain of Serine/threonine-protein kinase BRSK1 (Homo sapiens) (Q8TDC3 whole entry): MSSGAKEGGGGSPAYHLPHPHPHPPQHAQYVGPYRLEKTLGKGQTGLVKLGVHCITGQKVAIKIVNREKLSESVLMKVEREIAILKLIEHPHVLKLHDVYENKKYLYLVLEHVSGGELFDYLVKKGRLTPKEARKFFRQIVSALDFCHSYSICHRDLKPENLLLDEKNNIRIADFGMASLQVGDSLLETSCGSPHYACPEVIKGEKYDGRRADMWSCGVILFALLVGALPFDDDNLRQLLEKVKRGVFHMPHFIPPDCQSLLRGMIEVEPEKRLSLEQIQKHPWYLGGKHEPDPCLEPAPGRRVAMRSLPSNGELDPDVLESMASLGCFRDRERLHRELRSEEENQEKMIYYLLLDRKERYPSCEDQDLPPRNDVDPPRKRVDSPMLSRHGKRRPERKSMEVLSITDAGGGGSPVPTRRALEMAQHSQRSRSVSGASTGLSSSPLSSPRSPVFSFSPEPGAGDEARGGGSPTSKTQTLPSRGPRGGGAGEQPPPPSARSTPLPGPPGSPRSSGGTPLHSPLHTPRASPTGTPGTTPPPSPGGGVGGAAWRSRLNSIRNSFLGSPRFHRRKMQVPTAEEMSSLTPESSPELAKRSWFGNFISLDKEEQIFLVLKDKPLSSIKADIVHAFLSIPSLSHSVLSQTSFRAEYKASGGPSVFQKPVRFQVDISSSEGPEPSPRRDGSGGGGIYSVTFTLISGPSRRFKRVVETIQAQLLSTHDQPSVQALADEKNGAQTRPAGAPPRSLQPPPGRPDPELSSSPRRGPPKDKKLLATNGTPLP
Chain of Mitogen-activated protein kinase kinase kinase 9 (Homo sapiens) (P80192 whole entry, looked up): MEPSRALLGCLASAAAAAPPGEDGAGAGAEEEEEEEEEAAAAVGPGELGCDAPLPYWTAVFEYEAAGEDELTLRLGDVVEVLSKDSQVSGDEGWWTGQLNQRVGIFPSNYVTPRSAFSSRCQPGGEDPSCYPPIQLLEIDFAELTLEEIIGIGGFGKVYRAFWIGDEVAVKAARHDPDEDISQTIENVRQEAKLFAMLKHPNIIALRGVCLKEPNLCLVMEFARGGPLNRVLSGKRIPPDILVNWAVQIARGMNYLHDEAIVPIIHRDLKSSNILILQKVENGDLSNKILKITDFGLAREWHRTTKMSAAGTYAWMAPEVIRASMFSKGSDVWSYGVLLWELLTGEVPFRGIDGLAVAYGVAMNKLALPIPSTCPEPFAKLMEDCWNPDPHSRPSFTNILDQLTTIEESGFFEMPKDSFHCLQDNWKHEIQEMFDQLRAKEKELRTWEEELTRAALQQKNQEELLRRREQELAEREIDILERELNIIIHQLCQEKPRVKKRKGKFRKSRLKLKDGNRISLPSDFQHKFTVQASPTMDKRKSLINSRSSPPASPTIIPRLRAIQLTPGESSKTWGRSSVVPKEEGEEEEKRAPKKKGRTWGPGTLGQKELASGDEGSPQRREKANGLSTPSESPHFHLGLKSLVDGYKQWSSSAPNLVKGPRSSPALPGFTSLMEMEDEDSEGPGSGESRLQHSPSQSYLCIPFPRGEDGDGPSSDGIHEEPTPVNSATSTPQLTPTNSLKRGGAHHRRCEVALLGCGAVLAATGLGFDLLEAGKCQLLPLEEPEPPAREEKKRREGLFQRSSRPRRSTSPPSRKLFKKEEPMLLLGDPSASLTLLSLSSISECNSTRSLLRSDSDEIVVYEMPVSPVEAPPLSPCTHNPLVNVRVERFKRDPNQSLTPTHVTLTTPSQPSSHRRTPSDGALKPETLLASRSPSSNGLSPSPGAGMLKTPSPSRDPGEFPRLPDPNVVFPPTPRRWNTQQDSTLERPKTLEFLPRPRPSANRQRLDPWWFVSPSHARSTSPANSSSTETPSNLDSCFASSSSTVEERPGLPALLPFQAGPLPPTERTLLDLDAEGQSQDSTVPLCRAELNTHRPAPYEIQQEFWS
Chain of Tyrosine-protein kinase ABL2 (Homo sapiens) (P42684 whole entry): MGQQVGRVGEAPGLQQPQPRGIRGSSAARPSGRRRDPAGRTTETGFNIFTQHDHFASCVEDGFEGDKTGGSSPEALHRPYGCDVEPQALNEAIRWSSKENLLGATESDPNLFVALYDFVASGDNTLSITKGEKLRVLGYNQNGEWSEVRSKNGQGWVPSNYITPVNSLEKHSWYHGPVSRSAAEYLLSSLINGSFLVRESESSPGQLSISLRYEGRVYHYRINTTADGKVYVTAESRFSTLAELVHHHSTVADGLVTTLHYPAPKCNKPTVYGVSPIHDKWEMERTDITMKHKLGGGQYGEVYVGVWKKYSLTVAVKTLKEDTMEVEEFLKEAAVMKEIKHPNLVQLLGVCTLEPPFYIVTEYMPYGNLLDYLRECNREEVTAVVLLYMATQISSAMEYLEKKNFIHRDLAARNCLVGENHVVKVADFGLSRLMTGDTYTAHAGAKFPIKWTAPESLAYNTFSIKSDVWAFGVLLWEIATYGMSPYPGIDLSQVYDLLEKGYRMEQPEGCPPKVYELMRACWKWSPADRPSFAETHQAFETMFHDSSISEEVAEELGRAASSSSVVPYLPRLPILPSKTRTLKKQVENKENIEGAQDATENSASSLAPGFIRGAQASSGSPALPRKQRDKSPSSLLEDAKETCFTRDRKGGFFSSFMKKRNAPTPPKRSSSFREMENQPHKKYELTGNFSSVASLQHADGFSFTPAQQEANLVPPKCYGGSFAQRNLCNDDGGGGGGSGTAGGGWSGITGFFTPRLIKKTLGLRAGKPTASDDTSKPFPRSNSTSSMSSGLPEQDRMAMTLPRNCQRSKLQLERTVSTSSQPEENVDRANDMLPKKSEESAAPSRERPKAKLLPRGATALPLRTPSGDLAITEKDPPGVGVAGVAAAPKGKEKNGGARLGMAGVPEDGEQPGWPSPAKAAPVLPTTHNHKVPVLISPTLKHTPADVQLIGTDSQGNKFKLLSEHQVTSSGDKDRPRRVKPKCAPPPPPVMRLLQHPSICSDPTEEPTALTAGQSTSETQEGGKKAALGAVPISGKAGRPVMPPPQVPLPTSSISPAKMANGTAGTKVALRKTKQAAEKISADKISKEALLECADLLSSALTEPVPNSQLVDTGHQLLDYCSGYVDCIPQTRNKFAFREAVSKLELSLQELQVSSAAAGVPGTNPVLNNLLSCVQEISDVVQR
Chain of Serine/threonine-protein kinase ICK (Q9UPZ9 whole entry): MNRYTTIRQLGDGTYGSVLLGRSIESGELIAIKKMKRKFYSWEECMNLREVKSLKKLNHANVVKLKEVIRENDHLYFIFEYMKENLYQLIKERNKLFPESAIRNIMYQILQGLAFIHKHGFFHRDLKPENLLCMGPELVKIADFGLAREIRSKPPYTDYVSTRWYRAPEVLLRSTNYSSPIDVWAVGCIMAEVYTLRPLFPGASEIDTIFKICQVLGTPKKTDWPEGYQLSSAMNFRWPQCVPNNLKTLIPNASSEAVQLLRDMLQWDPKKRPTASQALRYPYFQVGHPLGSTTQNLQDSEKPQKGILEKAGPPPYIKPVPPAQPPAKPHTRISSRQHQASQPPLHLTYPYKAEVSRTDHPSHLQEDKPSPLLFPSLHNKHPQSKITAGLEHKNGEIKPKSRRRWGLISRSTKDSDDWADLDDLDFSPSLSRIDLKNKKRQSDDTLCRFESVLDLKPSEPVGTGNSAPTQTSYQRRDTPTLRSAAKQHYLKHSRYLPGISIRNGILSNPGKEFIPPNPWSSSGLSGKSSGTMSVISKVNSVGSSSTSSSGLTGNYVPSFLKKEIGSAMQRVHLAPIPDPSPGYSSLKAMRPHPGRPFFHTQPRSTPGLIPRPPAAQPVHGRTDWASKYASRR

Structure (SMILES): O=C(Nc1nc2cccc(-c3ccc(CN4CCS(=O)(=O)CC4)cc3)n2n1)C1CC1 [FILGOTINIB]
- inhibition [1]: -6%
- inhibition [2]: 14%
- inhibition [3]: -6%
- Activity [4]: 7.8 ng/mL
- inhibition [5]: 2%
- inhibition [6]: -3%
- Activity [7]: 153.8 ng/mL
- Activity [8]: Active
- inhibition [9]: 5%
- IC50 [10]: > 10 µM
- half-life [11]: 1.7 h
- inhibition [12]: -7%
- bioavailability [13]: ~100%
- inhibition [14]: 9%
- inhibition [15]: 1%
- inhibition [16]: -5%
- inhibition [17]: 2%
- AUC [18]: 739 ng·h/mL
- Activity [19]: Active
- half-life [20]: ~4 h
- Activity [21]: 143 ng/mL
- inhibition [22]: -4%
- Activity [23]: Active
- IC50 [24]: > 10 µM
- inhibition [25]: -4%
- inhibition [26]: 7%
- IC50 [27]: 1.33 µM
- inhibition [28]: -4%
- IC50 [29]: > 10 µM
- inhibition [30]: 0%
- inhibition [31]: -5%
- inhibition [32]: -5%
- inhibition [33]: -5%
- IC50 [34]: > 10 µM
- inhibition [35]: 1%
- inhibition [36]: -8%
- inhibition [37]: 1%
- AUC [38]: 347 ng·h/mL
- inhibition [39]: 28%
- Activity [40]: Active
- inhibition [41]: 4%
